Test results: patent publication US20090036528A1 (priority 2007, published 2009)
Where a SMILES comes first, the peptide text is derived from it.

Key:
[1] = FUTHAN compared with aprotinin and AEBSF; cited from earlier work
[2] = system: Stratum Corneum Tryptic Enzyme (SCTE); settings: reported rosacea study; cited from earlier work
[3] = aspartame lotion on acetic acid burn; type: in vivo, human; settings: lotion application; burn from acetic acid spilled on an individual's leg
Source text: It is also contemplated that the current invention may also help the redness of the skin and/or promote healing for the same injury.

[4] = bone density in human subjects ingesting aspartame (bone scans, dental records); settings: subject
[5] = pigs fed aspartame over a two month period: bleeding time and platelet count; type: in vivo; settings: pigs fed 75-300 mg aspartame/100 weight/day over a two month period
Source text: Recent chemical evidence has documented the mechanism of the analgesia and blood thinning properties of ASP as attributable in part to the compound's ability to inhibit the cyclo-oxygenase enzymes known as COX-1 and COX-2. […] It is contemplated that a preferred embodiment may use a coated tablet or pill that may prevent or reduce hydrolysis of the aspartame ester group in the acidic conditions of the stomach.

[6] = chronic anemia patients using fruit flavored drink with aspartame; type: in vivo, human; settings: fruit flavored drink combination with aspartame
Source text: The current invention may utilize a pharmaceutically effective amount of aspartame or Asp-Phe for the treatment of sickle cell anemia and or chronic anemia in general. […] It is also contemplated that the current invention may be utilized as a food supplement product with beneficial attributes to chronic anemia patients which may include most cancer patients under treatment.

SRT-ORT mouse model = assay: SRT-ORT osteoarthritis mouse model, aspartame chow, X-ray analyses; type: in vivo; settings: chow containing 4 mg Aspartame/g, 12-18 months, vs non-supplemented chow
Source text: It has been reported that isotopically labeled Aspartame/Asp-Phe distributes to various tissues including the bones (See Aspartame Physiology and Biochemistry, Ed. Stegink, Lewis, D. and Filner, L. J. (1984), Marcel Decker, NY, Chapter 8, “Tissue Distribution of Orally Administered Isotopically Labeled Aspartame in Rat.” By Matsuzawa, Y., O'Hara, Y., pp. 161-199.). It is well established that the ester group on aspartame is labile to both acid hydrolysis, as exists in the stomach, and to enzyme esterases that are common to all body fluids and tissues. […] It is contemplated that this mechanism will enhance the transfer of essential minerals from the digestive system to the blood, tissues, and cells. Further evidence that aspartame (Asp-Phe) ingestion contributes to muscle (tissue) density and bone density enhancement comes from mouse studies. The SRT-ORT mouse model is a genetically deficient mouse strain obtained from NIH with a natural history of developing osteoarthritis. Blinded experiments were conducted with littermates divided into two groups, one fed chow containing 4 mg Aspartame/g. and the other fed non-supplemented chow over a period of 12-18 months. X-ray analyses were performed on the cortex and marrow spaces of the right and left femurs, as well as the quadriceps in the femoris area and joint calcification. […] The increase in calcification in the treated animal cohort at the injured joints gave a P value <0.0001. An unexpected increase in quadriceps muscle mass index for the treated animals gave a P value of 0.0185. These analyses were preformed on an n value of 23 animals in the treated set and 18 animals in the controls. Therefore, it is contemplated that animals fed aspartame over an extended time period have increased bone density and muscle mass indicating increased or enhanced calcium, and perhaps other minerals, bioavailability and utility.

COX-2 = target: T1, COX-2 (Homo sapiens, UniProt P35354); assay: COX-2 enzyme inhibition
T1 sequence (P35354 18-604): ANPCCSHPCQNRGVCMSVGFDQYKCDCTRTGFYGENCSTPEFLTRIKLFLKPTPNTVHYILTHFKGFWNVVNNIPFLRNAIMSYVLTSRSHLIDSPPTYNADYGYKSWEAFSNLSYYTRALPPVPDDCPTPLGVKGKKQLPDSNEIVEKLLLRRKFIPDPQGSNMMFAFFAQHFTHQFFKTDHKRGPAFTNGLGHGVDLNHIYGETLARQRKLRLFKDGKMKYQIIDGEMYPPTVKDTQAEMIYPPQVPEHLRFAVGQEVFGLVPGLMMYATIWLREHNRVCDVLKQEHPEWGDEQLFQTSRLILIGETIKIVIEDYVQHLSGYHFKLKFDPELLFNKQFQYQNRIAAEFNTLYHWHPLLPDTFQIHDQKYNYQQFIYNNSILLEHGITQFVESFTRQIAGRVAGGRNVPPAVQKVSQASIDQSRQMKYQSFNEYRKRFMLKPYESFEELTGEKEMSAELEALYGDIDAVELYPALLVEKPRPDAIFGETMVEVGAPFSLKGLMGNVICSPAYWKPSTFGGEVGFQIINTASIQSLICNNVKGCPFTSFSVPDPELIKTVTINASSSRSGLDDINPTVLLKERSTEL

COX-1 = COX-1 (Homo sapiens, UniProt P23219); assay: COX-1 enzyme inhibition
Chain of COX-1 (P23219 24-599): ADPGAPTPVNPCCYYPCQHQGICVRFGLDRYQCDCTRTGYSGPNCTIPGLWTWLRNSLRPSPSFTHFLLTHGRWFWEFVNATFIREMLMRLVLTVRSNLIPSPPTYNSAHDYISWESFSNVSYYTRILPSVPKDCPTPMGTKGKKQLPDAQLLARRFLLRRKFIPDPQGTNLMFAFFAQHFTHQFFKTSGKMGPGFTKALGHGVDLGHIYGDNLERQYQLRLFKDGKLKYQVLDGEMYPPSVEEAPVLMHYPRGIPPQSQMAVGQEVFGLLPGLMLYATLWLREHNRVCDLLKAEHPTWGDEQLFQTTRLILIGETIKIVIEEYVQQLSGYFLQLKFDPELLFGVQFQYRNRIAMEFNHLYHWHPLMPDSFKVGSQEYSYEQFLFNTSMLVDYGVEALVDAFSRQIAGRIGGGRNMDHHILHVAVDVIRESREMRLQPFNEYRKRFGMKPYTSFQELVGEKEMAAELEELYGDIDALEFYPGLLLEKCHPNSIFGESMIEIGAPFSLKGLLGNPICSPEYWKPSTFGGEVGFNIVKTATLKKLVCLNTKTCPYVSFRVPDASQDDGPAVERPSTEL

KLK7/SCCE = KLK7/SCCE (Homo sapiens, UniProt P49862); assay: enzyme inhibition KLK7/SCCE; type: biochemical; settings: approximate; read-out: IC50 (50% inhibition) KLK7/SCCE
Chain of KLK7/SCCE (P49862 30-253): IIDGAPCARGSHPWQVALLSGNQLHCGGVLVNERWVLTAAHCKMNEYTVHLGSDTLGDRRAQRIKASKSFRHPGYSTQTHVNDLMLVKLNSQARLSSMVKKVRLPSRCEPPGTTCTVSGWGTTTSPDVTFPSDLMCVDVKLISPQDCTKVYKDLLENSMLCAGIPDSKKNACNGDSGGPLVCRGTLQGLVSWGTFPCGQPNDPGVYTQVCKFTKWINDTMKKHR
Source text: (§1) It is understood that aspartame, FUTHAN, and combinations thereof may be utilized.

chymotrypsin = chymotrypsin (Bos taurus, UniProt P00766); settings: literature (Niinobe et al., Fujii et al.); cited from earlier work
[7] = system: total protease activity in skin extracts; assay: inhibition of total protease activity in skin extracts; type: biochemical, human; settings: skin extracts from three individuals; FIG. 2
pancreatic kallikrein = pancreatic kallikrein (Homo sapiens, UniProt P06870); assay: enzyme inhibition pancreatic kallikrein; type: biochemical; settings: approximate; read-out: IC50 (50% inhibition) pancreatic kallikrein
Chain of pancreatic kallikrein (P06870 25-262): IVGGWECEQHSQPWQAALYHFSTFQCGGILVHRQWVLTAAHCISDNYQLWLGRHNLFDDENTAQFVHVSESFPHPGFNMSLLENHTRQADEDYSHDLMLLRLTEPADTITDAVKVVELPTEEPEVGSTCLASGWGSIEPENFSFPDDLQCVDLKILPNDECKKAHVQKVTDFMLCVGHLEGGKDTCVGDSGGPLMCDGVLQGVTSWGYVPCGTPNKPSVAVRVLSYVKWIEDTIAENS
Source text: Enzyme inhibition data was collected for KLK5/SCTE, KLK7/SCCE7, pancreatic kallikrein and trypsin (control).

various serine proteases = assay: inhibition of various serine proteases compared with known inhibitors; type: biochemical; settings: FIG. 3
KLK5/SCTE = target: T2, KLK5/SCTE (Homo sapiens, UniProt Q9Y337); assay: enzyme inhibition KLK5/SCTE; type: biochemical; settings: approximate; read-out: IC50 (50% inhibition) KLK5/SCTE
T2 sequence (Q9Y337 23-293): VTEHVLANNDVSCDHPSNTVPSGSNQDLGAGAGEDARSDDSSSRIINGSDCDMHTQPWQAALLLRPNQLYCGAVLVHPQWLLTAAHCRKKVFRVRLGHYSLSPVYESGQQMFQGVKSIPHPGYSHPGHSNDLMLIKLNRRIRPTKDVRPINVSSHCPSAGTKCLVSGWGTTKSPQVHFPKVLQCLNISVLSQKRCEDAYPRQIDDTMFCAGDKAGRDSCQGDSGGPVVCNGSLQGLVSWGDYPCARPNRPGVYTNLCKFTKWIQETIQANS
Source text: as §1

[8] = in excess of 300 mg/day for several years

Aprotinin
toxicity / side effects [1]: known serious side effects
inhibition of SCTE [2]: effective in inhibiting this enzyme

COC(=O)[C@H](Cc1ccccc1)NC(=O)[C@@H](N)CC(=O)O [aspartame, N-L-alpha-aspartyl-L-phenylalanine 1-methyl ester] (H-Asp-Phe-OMe)
pain associated with a burn [3]: relieved the pain
bone density from dental records ([4]; 150-300 mg/day over several years): bone density increase
density of the right and left femur, mean [4, 8]: 1.2 g/cm2
femur density relative to the density of a young adult [4, 8]: 122%
lumbar spine bone density (L1-L4) [4, 8]: 1.74 g/cm2
lumbar spine bone density relative to the density of a young adult [4, 8]: 148%
bleeding times [5]: significantly increased
platelet counts [5]: elevated
energy and muscle pain in chronic anemia patients [6]: more energy and less muscle pain
calcification at the injured joints (SRT-ORT mouse model; P value <0.0001): increase
cortical bone density (SRT-ORT mouse model; P value of 0.0058): increase
quadriceps muscle mass index (SRT-ORT mouse model; P value of 0.0185): increase
IC50 (COX-2): < 1000 nM
IC50 (COX-1): < 1000 nM

NCCc1ccc(S(=O)(=O)F)cc1 [AEBSF, 4-(2-aminoethyl)-benzenesulfonyl fluoride]
toxicity / side effects [1]: known serious side effects
inhibition of SCTE [2]: effective in inhibiting this enzyme

CS(=O)(=O)O.CS(=O)(=O)O.N=C(N)Nc1ccc(C(=O)Oc2ccc3cc(C(=N)N)ccc3c2)cc1 [FUTHAN, 6-amidino-2-naphthyl p-guanidinobenzoate dimethanesulfonate]
IC50 (KLK7/SCCE): ~80 µM
inhibition of chymotrypsin or enzymes with chymotrypsin specificity (chymotrypsin): not chymotrypsin
inhibition of total protease activity in skin extracts [7]: efficacy of the inhibitor
IC50 (pancreatic kallikrein): ~20 µM
inhibitor strength compared with aprotinin and AEBSF (various serine proteases): weaker
IC50 (KLK5/SCTE): ~2000 nM
